Where two headings read alike, the source gives them in different places. Numbered stars: 1 amine (or outer) side, 2 acyl side, 3 side chain; on linkers, the order of the positions; unused ones are H or OH. Bridge positions count the residues as written; N and C are the ends. Square brackets hold non-standard residues; d marks the D form. Peptide text beside a SMILES is read from it. Trp(βS-Me,7-OMe) = COc1cccc2c([C@H](C)[C@H](N)C(=O)O)c[nH]c12; X17 = Cc1[nH]c2ccccc2c1[C@H](C)[C@H](N[*:1])C(=O)[*:2]; Ala(indazol-1-yl) = N[C@@H](Cn1ncc2ccccc21)C(=O)O; Phe(4-NHCONH2) = NC(=O)Nc1ccc(C[C@H](N)C(=O)O)cc1; Trp(7-Cl) = N[C@@H](Cc1c[nH]c2c(Cl)cccc12)C(=O)O; X11 = O=C(O)C[C@@H]1C[C@H](C(=O)[*:2])N([*:1])C1; Ala(pyrimidin-5-yl) = N[C@@H](Cc1cncnc1)C(=O)O; Phe(4-CONH2) = NC(=O)c1ccc(C[C@H](N)C(=O)O)cc1; Phe(4-COOH) = N[C@@H](Cc1ccc(C(=O)O)cc1)C(=O)O; Trp(7-aza) = N[C@@H](Cc1c[nH]c2ncccc12)C(=O)O; Phe(4-CH2NH2) = NCc1ccc(C[C@H](N)C(=O)O)cc1; Pip(5R-OH) = O=C(O)[C@@H]1CC[C@@H](O)CN1; X1 = O=C([C@@H]1CC[C@H](N[*:1])C1)[*:2]; NHCH2CH2SCH2CO = O=C(CSCCN[*:1])[*:2]; Pip(4-aza) = O=C(O)[C@@H]1CNCCN1; hPhe = N[C@@H](CCc1ccccc1)C(=O)O; 4Pal = N[C@@H](Cc1ccncc1)C(=O)O; NMeE = CN[C@@H](CCC(=O)O)C(=O)O; NMehSer = CN[C@@H](CCO)C(=O)O; hLys = NCCCCC[C@H](N)C(=O)O; NMeS = CN[C@@H](CO)C(=O)O; αMeS = C[C@](N)(CO)C(=O)O; NMeA = CN[C@@H](C)C(=O)O; Nle = CCCC[C@H](N)C(=O)O; Sar = CNCC(=O)O
What was measured:
[1] = target: T1, human TNFR1 extracellular domain (ECD) protein (Homo sapiens, UniProt P19438); assay: SPR binding affinity to captured human TNFR1 ECD
T1 construct: HRV 3C protease cleavage site (C); 6His (C, cleaved yes); made in house; host or cells: Sf21 insect cells (baculovirus), secreted
T1 sequence (P19438 30-211): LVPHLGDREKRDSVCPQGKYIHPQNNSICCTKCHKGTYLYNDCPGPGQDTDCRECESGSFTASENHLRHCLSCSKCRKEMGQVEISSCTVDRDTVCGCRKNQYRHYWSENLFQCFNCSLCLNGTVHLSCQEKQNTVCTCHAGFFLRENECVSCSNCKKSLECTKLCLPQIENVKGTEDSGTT
Outline: (§1)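 Insect-cell human receptor ECDs, enzymatically biotinylated, immobilized via streptavidin capture chip. Peptide binding and dissociation measured in RU in pH 7.4 HEPES buffer containing 2% DMSO; chip regenerated per analyte. Rate constants give affinity.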

[2] = target: T2, TNFα-induced NF-κB signal transduction pathway (TNFR1 signaling) in THP-1 cells (Homo sapiens, UniProt P19438); assay: THP-1 Lucia NF-κB reporter cell assay, inhibition of TNFα-induced NF-κB signaling; type: cell-based; details: THP-1 NF-κB Lucia reporter cells, 10 ng/mL TNFα, 16-18 h, secreted luciferase; read-out: THP-1 IC50
T2 sequence (P19438 30-455): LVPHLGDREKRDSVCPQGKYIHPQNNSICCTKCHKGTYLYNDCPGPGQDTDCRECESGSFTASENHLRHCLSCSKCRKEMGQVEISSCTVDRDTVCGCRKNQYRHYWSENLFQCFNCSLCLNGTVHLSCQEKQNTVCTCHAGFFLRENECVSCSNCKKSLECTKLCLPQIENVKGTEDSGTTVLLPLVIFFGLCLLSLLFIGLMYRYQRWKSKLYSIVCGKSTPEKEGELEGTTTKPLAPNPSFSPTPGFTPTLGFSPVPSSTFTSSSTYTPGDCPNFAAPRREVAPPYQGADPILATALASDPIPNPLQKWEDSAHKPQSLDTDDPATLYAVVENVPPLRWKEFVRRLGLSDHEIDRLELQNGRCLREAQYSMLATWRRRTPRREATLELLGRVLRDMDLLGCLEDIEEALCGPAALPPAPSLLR
Outline: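 Inhibition of TNFR1-driven NF-κB activation was measured as luminescence of secreted reporter luciferase following overnight (16-18 h) stimulation with 10 ng/mL TNFα.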

[3] = target: T3, human TNFR2 ECD protein (Homo sapiens, UniProt P20333); assay: SPR off-target binding (selectivity) to human TNFR2 ECD
T3 construct: HRV 3C protease cleavage site (C); 6His (C, cleaved yes); made in house; host or cells: Sf21 insect cells (baculovirus), secreted
T3 sequence (P20333 23-257): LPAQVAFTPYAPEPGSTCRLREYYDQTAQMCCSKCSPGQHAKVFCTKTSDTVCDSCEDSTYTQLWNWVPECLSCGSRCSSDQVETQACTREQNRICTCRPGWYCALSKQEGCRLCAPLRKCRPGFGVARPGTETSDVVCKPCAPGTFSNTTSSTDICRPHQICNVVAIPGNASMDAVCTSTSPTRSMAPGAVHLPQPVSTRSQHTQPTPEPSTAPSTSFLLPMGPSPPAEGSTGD
Outline: as §1

Row | Compound | Kd [1] [nM] | IC50 [2] [nM] | Kd [3] [nM] | Kd ([1]; biotinylated human TNFR1 ECD on streptavidin chip, from kon and koff, read-out: SPR hTNFR1 KD) [nM] | Kd ([3]; biotinylated human TNFR2 ECD on streptavidin chip, read-out: SPR hTNFR2 KD) [nM]
1 | CCCC[C@@H]1NC(=O)CSC[C@@H](C(N)=O)NC(=O)[C@H]([C@@H](C)c2c(C)[nH]c3ccccc23)NC(=O)CN(C)C(=O)[C@H](Cc2ccc(O)cc2)NC(=O)[C@H](Cc2ccc(C(N)=O)cc2)NC(=O)[C@](C)(CO)NC(=O)[C@H](Cc2c[nH]c3c(Cl)cccc23)NC(=O)[C@H](Cc2ccncc2)NC(=O)[C@H](CC(N)=O)NC(=O)[C@H](CCC(=O)O)N(C)C(=O)[C@H](Cc2c[nH]c3ccccc23)NC(=O)[C@@H]2CC[C@@H](O)CN2C(=O)[C@H](Cc2ccncc2)NC1=O [SEQ ID NO. 97] ({CH2CO}-[Nle][4Pal][Pip(5R-OH)]W[NMeE]N[4Pal][Trp(7-Cl)][αMeS][Phe(4-CONH2)]Y[Sar][X17]C-NH2; thioether N-14) | 0.08 | 0.9 | > 1000 | – | –
2 | CCCC[C@@H]1NC(=O)CSC[C@@H](C(N)=O)NC(=O)[C@H]([C@@H](C)c2c[nH]c3c(OC)cccc23)NC(=O)CN(C)C(=O)[C@H](Cc2ccc(O)cc2)NC(=O)[C@H](Cc2ccc(C(=O)O)cc2)NC(=O)[C@](C)(CO)NC(=O)[C@H](Cc2c[nH]c3c(Cl)cccc23)NC(=O)[C@H](Cc2ccncc2)NC(=O)[C@H](CC(N)=O)NC(=O)[C@H](CCC(=O)O)N(C)C(=O)[C@H](Cc2c[nH]c3ncccc23)NC(=O)[C@H](CCOC)N(C)C(=O)[C@H](Cc2ccncc2)NC1=O [SEQ ID NO. 99] ({CH2CO}-[Nle][4Pal][NMehSer](Me)[Trp(7-aza)][NMeE]N[4Pal][Trp(7-Cl)][αMeS][Phe(4-COOH)]Y[Sar][Trp(βS-Me,7-OMe)]C-NH2; thioether N-14) | 0.15 | 3.7 | > 1000 | – | –
3 | CCCC[C@@H]1NC(=O)[C@@H]2CC[C@@H](C2)NC(=O)[C@H]([C@@H](C)c2c[nH]c3c(OC)cccc23)NC(=O)CN(C)C(=O)[C@H](Cc2ccc(O)cc2)NC(=O)[C@H](Cc2ccc(C(N)=O)cc2)NC(=O)[C@](C)(CO)NC(=O)[C@H](Cc2c[nH]c3c(Cl)cccc23)NC(=O)[C@H](Cc2cncnc2)NC(=O)[C@H](CC(N)=O)NC(=O)[C@H](CCC(=O)O)N(C)C(=O)[C@H](Cc2c[nH]c3ccccc23)NC(=O)[C@@H]2CC[C@@H](O)CN2C(=O)[C@H](Cc2ccncc2)NC1=O [SEQ ID NO. 102] (cyclo([4Pal][Pip(5R-OH)]W[NMeE]N[Ala(pyrimidin-5-yl)][Trp(7-Cl)][αMeS][Phe(4-CONH2)]Y[Sar][Trp(βS-Me,7-OMe)][X1][Nle])) | 0.2 | 0.5 | > 1000 | – | –
4 | CCCC[C@@H]1NC(=O)CSC[C@@H](C(N)=O)NC(=O)[C@H]([C@@H](C)c2c[nH]c3c(OC)cccc23)NC(=O)CN(C)C(=O)[C@H](Cc2ccc(O)cc2)NC(=O)[C@H](Cc2ccc(C(=O)O)cc2)NC(=O)[C@](C)(CO)NC(=O)[C@H](Cc2c[nH]c3c(Cl)cccc23)NC(=O)[C@H](Cc2ccc(C(=O)O)cc2)NC(=O)[C@H](CC(N)=O)NC(=O)[C@H](CCC(=O)O)N(C)C(=O)[C@H](Cc2c[nH]c3ccccc23)NC(=O)[C@H](CO)N(C)C(=O)[C@H](Cc2ccc(C(N)=O)cc2)NC1=O [SEQ ID NO. 123] ({CH2CO}-[Nle][Phe(4-CONH2)][NMeS]W[NMeE]N[Phe(4-COOH)][Trp(7-Cl)][αMeS][Phe(4-COOH)]Y[Sar][Trp(βS-Me,7-OMe)]C-NH2; thioether N-14) | 0.32 | 4.1 | > 1000 | – | –
5 | CCCC[C@@H]1NC(=O)[C@@H]2CC[C@@H](C2)NC(=O)[C@H]([C@@H](C)c2c[nH]c3c(OC)cccc23)NC(=O)CN(C)C(=O)[C@H](Cc2ccc(O)cc2)NC(=O)[C@H](Cc2ccc(NC(N)=O)cc2)NC(=O)[C@](C)(CO)NC(=O)[C@H](Cc2c[nH]c3c(Cl)cccc23)NC(=O)[C@H](Cc2ccncc2)NC(=O)[C@H](CC(N)=O)NC(=O)[C@H](CCC(=O)O)N(C)C(=O)[C@H](Cc2c[nH]c3ccccc23)NC(=O)[C@@H]2CNCCN2C(=O)[C@H](Cc2ccncc2)NC1=O [SEQ ID NO. 127] (cyclo([4Pal][Trp(7-Cl)][αMeS][Phe(4-NHCONH2)]Y[Sar][Trp(βS-Me,7-OMe)][X1][Nle][4Pal][Pip(4-aza)]W[NMeE]N)) | 0.18 | 0.8 | > 1000 | – | –
6 | COc1cccc2c([C@H](C)[C@@H]3NC(=O)CN(C)C(=O)[C@H](Cc4ccc(O)cc4)NC(=O)[C@H](Cc4ccc(C(=O)O)cc4)NC(=O)[C@](C)(CO)NC(=O)[C@H](Cc4c[nH]c5c(Cl)cccc45)NC(=O)[C@H](Cc4ccncc4)NC(=O)[C@H](CC(N)=O)NC(=O)[C@H](CCC(=O)O)N(C)C(=O)[C@H](Cc4c[nH]c5ccccc45)NC(=O)[C@@H]4CC[C@@H](O)CN4C(=O)[C@H](Cc4ccncc4)NC(=O)[C@H](CCCCCN)NC(=O)[C@@H]4CC[C@@H](C4)NC3=O)c[nH]c12 [SEQ ID NO. 131] (cyclo([4Pal][Trp(7-Cl)][αMeS][Phe(4-COOH)]Y[Sar][Trp(βS-Me,7-OMe)][X1][hLys][4Pal][Pip(5R-OH)]W[NMeE]N)) | 0.06 | 0.7 | > 1000 | – | –
7 | CCCC[C@@H]1NC(=O)[C@@H]2CC[C@@H](C2)NC(=O)[C@H]([C@@H](C)c2c[nH]c3c(OC)cccc23)NC(=O)CN(C)C(=O)[C@H](Cc2ccc(C(=O)O)cc2)NC(=O)[C@H](Cc2ccc(C(N)=O)cc2)NC(=O)[C@](C)(CO)NC(=O)[C@H](Cc2c[nH]c3c(Cl)cccc23)NC(=O)[C@H](Cc2ccc(C(=O)O)cc2)NC(=O)[C@H](CC(N)=O)NC(=O)[C@H]2C[C@@H](CC(=O)O)CN2C(=O)[C@H](Cc2c[nH]c3ccccc23)NC(=O)[C@@H]2CC[C@@H](O)CN2C(=O)[C@H](Cc2ccncc2)NC1=O [SEQ ID NO. 132] (cyclo([4Pal][Pip(5R-OH)]W[X11]N[Phe(4-COOH)][Trp(7-Cl)][αMeS][Phe(4-CONH2)][Phe(4-COOH)][Sar][Trp(βS-Me,7-OMe)][X1][Nle])) | 0.08 | 0.7 | > 1000 | – | –
8 | CCCC[C@@H]1NC(=O)CSCCNC(=O)[C@H]([C@@H](C)c2c[nH]c3c(OC)cccc23)NC(=O)CN(C)C(=O)[C@H](Cc2ccc(O)cc2)NC(=O)[C@H](Cc2ccc(C(=O)O)cc2)NC(=O)[C@](C)(CO)NC(=O)[C@H](Cc2c[nH]c3c(Cl)cccc23)NC(=O)[C@H](Cc2ccncc2)NC(=O)[C@H](CC(N)=O)NC(=O)[C@H](CCC(=O)O)N(C)C(=O)[C@H](Cc2c[nH]c3ncccc23)NC(=O)[C@H](CO)NC(=O)[C@H](Cc2ccc(CN)cc2)NC1=O [SEQ ID NO. 258] (cyclo([4Pal][Trp(7-Cl)][αMeS][Phe(4-COOH)]Y[Sar][Trp(βS-Me,7-OMe)][NHCH2CH2SCH2CO][Nle][Phe(4-CH2NH2)]S[Trp(7-aza)][NMeE]N)) | 0.2 | 11.5 | > 1000 | – | –
9 | C[C@H]1C(=O)N[C@@H](CC(N)=O)C(=O)N[C@@H](Cc2ccncc2)C(=O)N[C@@H](Cc2c[nH]c3ccccc23)C(=O)N[C@@](C)(CO)C(=O)N[C@@H](Cc2ccc(C(=O)O)cc2)C(=O)N[C@@H](Cc2ccc(O)cc2)C(=O)N(C)CC(=O)N[C@@H](Cc2c[nH]c3ccccc23)C(=O)N[C@H](C(N)=O)CSCC(=O)N[C@@H](CCc2ccccc2)C(=O)N[C@@H](Cc2ccc(O)cc2)C(=O)N[C@@H](CO)C(=O)N[C@@H](Cn2ncc3ccccc32)C(=O)N1C [SEQ ID NO. 265] ({CH2CO}-[hPhe]YS[Ala(indazol-1-yl)][NMeA]N[4Pal]W[αMeS][Phe(4-COOH)]Y[Sar]WC-NH2; thioether N-14) | – | 4.9 | – | 1 | > 1000
